In ChEMBL document CHEMBL1201862, “PubChem BioAssay data set” (2004):
“And” between values parts separate entries of the source, which are not always exact repeats. Equal values may be shown once. The source made the active and inactive calls.

How the values were obtained:
[1] = biological target: Beta-2 adrenergic receptor (Homo sapiens, UniProt P07550); experiment: ADRB2 activation measured by internalization – cell-based, FAP fluorogen, flow cytometry, cherry pick 1, dose response (AID 588763); format: functional
Beta-2 adrenergic receptor, sequence (P07550 whole entry): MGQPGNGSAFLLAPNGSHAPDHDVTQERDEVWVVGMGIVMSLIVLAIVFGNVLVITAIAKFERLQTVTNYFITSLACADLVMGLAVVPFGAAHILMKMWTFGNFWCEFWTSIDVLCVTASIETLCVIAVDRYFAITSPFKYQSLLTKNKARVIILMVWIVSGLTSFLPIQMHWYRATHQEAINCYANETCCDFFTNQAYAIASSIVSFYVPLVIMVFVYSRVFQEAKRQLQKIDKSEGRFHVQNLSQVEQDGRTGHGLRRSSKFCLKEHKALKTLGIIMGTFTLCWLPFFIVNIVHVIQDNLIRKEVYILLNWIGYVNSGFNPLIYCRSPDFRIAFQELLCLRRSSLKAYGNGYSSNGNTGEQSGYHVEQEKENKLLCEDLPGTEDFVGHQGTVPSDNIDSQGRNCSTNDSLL

[2] = HEK-293T cell viability reduction – luminescence, B-cell screen hits, cytotoxicity control for BCR NF-kB inhibitor project, dose response (AID 489021); format: functional, cell-based;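 also: HEK-293T cells carrying an NF-kB luciferase reporter; cells exposed to compound for about 14 hours before viability readout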
HEK293 [3] = experiment: HEK293T cell viability loss, resazurin readout – resazurin fluorescence, cytotoxicity control for NF-kB activator project, SAR follow-up (AID 493251); format: functional, cell-based; settings: Homo sapiens
Jurkat = experiment: SAR Analysis of small molecule inhibitors of T-cell specific antigen receptor-induced NF-kB activation in a Jurkat cell line using a luminescence assay - Set 2. [Related pubchem assays (depositor defined):AID435003, AID435012, AID465]; format: functional, cell-based; settings: Homo sapiens
HEK293 [4] = experiment: SAR Analysis of small molecule inhibitors of T-cell specific antigen receptor-induced NF-kB activation in a HEK-293T cell line using a luminescence assay - Set 2. [Related pubchem assays (depositor defined):AID435003, AID435012, AID489026]; format: functional, cell-based; settings: Homo sapiens
[5] = biological target: Dual specificity protein kinase CLK1 (Homo sapiens, UniProt P49759); experiment: inhibition of human CLK1 activity – biochemical, cherry-picked samples, selectivity assay for Dyrk1A inhibitor project, dose response (AID 588811)
Dual specificity protein kinase CLK1, sequence (P49759 whole entry): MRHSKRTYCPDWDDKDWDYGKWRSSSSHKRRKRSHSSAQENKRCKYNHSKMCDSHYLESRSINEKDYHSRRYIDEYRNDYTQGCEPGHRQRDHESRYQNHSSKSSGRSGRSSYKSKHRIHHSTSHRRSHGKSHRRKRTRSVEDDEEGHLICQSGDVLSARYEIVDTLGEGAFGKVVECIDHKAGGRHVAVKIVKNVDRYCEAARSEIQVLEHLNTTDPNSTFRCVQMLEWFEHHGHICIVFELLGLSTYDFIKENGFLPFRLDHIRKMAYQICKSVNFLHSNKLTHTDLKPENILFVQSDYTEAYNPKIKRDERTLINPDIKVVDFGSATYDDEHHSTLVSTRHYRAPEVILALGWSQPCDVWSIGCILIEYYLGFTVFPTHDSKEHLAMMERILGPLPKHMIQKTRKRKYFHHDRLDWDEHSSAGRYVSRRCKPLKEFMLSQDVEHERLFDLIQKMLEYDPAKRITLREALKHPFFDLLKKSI

[6] = biological target: Dual specificity tyrosine-phosphorylation-regulated kinase 1A (Rattus norvegicus, UniProt Q63470); format: biochemical, Homo sapiens
[7] = viability loss in Vero cells – cytotoxicity control for Vif-APOBEC3G degradation inhibitor project, dose response (AID 1117358); format: functional; settings: Vero
[8] = biological target: Delta-type opioid receptor (Homo sapiens, UniProt P41143); experiment: Counterscreen for agonists of heterodimerization of the mu 1 (OPRM1) and delta 1 (OPRD1) opioid receptors: Luminescence-based cell-based high throughput dose response assay to identify agonists of OPRD1 homodimerization. [Related pubchem assays (depositor defined):AID504326, AID504355, AID504692, AID504904, AID504905]; format: functional
Delta-type opioid receptor, sequence (P41143 whole entry): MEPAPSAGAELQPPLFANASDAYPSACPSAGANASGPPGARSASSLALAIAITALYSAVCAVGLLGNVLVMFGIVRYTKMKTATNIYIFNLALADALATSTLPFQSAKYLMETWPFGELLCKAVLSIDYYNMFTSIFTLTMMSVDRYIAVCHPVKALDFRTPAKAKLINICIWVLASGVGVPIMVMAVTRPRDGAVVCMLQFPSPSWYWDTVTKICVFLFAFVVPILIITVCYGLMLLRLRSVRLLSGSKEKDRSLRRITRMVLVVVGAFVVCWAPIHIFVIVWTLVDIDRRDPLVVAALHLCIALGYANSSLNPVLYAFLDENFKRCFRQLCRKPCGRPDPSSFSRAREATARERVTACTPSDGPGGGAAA

Mu-type opioid receptor = Mu-type opioid receptor (Homo sapiens, UniProt P35372); experiment: Counterscreen for agonists of heterodimerization of the mu 1 (OPRM1) and delta 1 (OPRD1) opioid receptors: Luminescence-based cell-based high throughput dose response assay to identify agonists of OPRM1 homodimerization.; format: functional;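 also: U2OS cells expressing OPRM1 and beta-arrestin as split beta-galactosidase partners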
Mu-type opioid receptor, sequence (P35372 whole entry): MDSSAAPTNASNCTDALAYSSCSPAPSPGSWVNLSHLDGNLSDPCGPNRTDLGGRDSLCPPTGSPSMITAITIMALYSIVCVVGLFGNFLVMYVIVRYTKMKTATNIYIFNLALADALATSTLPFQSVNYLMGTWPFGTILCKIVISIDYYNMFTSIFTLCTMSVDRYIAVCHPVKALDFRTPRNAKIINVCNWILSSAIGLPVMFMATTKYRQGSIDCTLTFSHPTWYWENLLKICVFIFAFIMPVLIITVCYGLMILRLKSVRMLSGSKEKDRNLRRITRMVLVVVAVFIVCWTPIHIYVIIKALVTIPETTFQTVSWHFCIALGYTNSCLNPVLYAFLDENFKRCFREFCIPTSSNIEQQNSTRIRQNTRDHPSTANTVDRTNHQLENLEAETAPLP

[9] = biological target: Opioid receptors; mu & delta (Homo sapiens, UniProt P41143+P35372); experiment: OPRM1-OPRD1 heterodimer agonist potency – cell-based, luminescence, dose response (AID 588407); format: functional
[10] = biological target: 5-hydroxytryptamine receptor 5A (Homo sapiens, UniProt P47898); experiment: Counterscreen for agonists of OPRM1-OPRD1 heterodimerization: luminescence-based cell-based high throughput dose response assay to identify agonists of 5-hydroxytryptamine (serotonin) 5A receptor (HTR5A). [Related pubchem assays (depositor defined):AID504326, AID504355, AID504692, AID504904, AID504905]; format: functional
5-hydroxytryptamine receptor 5A, sequence (P47898 whole entry, the tested form may be a part): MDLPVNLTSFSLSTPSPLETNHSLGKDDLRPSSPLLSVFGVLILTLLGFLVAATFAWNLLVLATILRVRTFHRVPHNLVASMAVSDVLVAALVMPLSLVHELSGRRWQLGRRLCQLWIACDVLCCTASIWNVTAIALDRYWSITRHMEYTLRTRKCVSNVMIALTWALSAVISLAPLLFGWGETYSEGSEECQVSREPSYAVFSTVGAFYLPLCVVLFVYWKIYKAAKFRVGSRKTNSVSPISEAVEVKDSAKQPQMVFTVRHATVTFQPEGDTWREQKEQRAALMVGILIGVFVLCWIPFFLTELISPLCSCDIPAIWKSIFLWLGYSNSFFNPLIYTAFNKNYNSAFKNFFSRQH

Hexokinase-1 = Hexokinase-1 (Homo sapiens, UniProt P19367); experiment: SAR analysis of small molecule inhibitors of hexokinase domain containing I (HKDC1) in the hexokinase 1 selectivity assay. [Related pubchem assays (depositor defined):AID493160, AID493190]; format: functional
Hexokinase-1, sequence (P19367 whole entry, the tested form may be a part): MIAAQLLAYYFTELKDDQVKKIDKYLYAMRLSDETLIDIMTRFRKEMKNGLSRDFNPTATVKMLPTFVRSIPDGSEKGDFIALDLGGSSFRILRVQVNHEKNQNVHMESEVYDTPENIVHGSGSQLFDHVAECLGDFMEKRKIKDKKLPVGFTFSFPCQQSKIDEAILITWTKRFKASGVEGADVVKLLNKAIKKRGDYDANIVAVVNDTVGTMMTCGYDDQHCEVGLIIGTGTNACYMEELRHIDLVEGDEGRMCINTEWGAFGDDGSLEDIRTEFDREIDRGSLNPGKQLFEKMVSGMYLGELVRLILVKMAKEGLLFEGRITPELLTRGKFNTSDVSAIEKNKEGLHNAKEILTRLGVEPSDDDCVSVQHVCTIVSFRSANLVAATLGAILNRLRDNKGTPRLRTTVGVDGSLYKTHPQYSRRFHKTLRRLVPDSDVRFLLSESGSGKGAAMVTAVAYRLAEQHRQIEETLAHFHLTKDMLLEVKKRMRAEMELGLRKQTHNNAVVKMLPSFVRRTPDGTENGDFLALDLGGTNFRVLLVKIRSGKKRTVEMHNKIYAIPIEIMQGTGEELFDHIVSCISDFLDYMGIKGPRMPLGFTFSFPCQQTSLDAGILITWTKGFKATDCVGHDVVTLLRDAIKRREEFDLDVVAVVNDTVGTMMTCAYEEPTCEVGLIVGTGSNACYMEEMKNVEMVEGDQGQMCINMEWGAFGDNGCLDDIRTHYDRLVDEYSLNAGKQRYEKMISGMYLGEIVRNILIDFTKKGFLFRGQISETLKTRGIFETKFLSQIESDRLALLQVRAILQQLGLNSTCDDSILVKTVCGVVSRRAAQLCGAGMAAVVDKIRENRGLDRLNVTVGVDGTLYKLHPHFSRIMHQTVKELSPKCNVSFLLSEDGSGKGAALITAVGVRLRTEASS

Hexokinase HKDC1 = biological target: T1, Hexokinase HKDC1 (Homo sapiens, UniProt Q2TB90); experiment: SAR analysis of small molecule inhibitors of hexokinase domain containing I (HKDC1). [Related pubchem assays (depositor defined):AID493160, AID493190]; format: functional
T1 sequence (Q2TB90 whole entry): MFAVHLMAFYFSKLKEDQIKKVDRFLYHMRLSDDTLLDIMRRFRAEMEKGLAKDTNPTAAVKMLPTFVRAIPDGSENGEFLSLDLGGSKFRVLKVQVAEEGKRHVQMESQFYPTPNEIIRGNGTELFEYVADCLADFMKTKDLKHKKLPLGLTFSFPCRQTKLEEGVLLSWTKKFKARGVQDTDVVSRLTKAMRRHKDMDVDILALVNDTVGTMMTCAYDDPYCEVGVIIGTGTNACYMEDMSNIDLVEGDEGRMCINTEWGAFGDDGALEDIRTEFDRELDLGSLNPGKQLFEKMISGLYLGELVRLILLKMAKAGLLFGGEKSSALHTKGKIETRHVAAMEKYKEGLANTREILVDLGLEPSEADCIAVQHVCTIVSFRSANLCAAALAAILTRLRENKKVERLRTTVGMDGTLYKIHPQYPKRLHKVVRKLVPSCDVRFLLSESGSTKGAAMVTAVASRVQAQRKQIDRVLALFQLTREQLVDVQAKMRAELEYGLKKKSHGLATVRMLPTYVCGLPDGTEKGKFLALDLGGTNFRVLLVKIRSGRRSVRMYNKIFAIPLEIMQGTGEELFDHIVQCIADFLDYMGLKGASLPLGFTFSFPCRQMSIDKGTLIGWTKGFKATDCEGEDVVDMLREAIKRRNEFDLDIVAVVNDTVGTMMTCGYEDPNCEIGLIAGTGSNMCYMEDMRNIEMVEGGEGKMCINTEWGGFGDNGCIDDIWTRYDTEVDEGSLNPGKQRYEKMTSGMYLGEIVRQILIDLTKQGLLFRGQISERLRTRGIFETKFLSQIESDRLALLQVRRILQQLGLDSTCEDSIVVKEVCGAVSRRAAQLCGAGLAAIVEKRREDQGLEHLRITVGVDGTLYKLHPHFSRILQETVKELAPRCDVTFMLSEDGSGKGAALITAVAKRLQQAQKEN

Escherichia coli = experiment: microbe, parasite or virus in culture
[11] = biological target: Glycogen synthase kinase-3 alpha (Homo sapiens, UniProt P49840); experiment: Inhibition of Human GSK-3 alpha Activity Measured in Biochemical System Using Microfluidics - 2063-06_Inhibitor_Dose_DryPowder_Activity. [Related pubchem assays (depositor defined):AID2709]
Glycogen synthase kinase-3 alpha, sequence (P49840 whole entry): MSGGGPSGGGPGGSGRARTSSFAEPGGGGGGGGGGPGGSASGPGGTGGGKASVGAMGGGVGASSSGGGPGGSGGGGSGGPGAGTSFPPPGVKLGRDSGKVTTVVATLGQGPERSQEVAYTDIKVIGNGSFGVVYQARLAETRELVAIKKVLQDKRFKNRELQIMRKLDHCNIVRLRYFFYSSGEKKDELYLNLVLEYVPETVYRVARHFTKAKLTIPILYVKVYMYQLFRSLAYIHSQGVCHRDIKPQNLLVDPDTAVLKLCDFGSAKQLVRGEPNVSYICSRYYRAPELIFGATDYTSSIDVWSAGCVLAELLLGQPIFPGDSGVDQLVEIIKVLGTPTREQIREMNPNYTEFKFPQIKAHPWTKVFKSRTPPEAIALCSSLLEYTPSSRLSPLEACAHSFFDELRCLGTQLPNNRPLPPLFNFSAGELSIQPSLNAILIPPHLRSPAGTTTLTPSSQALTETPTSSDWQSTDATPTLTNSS

[12] = biological target: Glycogen synthase kinase-3 beta (Homo sapiens, UniProt P49841); experiment: Inhibition of Human GSK-3 beta Activity Measured in Biochemical System Using Microfluidics - 2063-05_Inhibitor_Dose_DryPowder_Activity. [Related pubchem assays (depositor defined):AID2709]
Glycogen synthase kinase-3 beta, sequence (P49841 whole entry, the tested form may be a part): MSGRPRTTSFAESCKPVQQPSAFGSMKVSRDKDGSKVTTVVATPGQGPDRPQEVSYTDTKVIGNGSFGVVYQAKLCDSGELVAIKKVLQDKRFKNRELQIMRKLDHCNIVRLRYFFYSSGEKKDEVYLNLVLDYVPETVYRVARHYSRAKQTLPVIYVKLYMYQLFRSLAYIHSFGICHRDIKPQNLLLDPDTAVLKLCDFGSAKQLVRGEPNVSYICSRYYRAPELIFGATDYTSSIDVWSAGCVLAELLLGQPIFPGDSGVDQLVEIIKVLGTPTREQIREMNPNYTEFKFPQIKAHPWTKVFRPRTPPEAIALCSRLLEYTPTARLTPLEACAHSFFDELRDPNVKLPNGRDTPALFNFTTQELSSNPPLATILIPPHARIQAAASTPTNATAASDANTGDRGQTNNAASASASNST

[13] = biological target: T2, RNA-binding protein pos-1 (Caenorhabditis elegans, UniProt G5EF15); experiment: disruptors of C. elegans POS-1 RNA interaction – biochemical, fluorescence polarization, dose response (AID 1964);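 also: purified POS-1 fused to maltose binding protein made in E. coli; potency of compounds blocking POS-1 binding to fluorescent RNA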
T2 sequence (G5EF15 whole entry): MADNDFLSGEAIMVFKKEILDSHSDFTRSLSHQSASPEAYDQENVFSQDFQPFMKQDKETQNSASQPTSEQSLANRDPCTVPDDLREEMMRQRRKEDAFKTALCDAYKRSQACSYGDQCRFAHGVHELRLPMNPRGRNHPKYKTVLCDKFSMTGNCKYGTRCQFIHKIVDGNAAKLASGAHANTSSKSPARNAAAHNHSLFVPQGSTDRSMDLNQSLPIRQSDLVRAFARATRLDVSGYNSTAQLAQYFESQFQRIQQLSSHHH

[14] = biological target: T3, Zinc finger protein mex-5 (Caenorhabditis elegans, UniProt Q9XUB2); experiment: potency of MEX-5 RNA-binding blockers – biochemical, C. elegans, fluorescence polarization, dose response (AID 1960)
T3 sequence (Q9XUB2 whole entry): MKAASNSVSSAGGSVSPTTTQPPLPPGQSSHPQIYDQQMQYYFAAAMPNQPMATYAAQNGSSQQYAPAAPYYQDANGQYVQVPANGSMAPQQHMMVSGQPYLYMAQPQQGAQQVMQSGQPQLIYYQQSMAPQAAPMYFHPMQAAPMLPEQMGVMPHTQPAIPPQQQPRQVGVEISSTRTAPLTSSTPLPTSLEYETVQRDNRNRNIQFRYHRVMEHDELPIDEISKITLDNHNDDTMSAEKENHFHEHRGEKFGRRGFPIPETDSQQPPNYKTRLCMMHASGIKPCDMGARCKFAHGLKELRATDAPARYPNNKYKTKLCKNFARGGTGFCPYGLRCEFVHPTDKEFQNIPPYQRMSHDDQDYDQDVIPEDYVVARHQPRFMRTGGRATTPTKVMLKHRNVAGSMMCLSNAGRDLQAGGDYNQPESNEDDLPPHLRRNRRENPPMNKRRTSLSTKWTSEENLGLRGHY

[15] = biological target: T4, Apoptotic protease-activating factor 1 (Homo sapiens, UniProt O14727); format: functional
T4 sequence (O14727 whole entry): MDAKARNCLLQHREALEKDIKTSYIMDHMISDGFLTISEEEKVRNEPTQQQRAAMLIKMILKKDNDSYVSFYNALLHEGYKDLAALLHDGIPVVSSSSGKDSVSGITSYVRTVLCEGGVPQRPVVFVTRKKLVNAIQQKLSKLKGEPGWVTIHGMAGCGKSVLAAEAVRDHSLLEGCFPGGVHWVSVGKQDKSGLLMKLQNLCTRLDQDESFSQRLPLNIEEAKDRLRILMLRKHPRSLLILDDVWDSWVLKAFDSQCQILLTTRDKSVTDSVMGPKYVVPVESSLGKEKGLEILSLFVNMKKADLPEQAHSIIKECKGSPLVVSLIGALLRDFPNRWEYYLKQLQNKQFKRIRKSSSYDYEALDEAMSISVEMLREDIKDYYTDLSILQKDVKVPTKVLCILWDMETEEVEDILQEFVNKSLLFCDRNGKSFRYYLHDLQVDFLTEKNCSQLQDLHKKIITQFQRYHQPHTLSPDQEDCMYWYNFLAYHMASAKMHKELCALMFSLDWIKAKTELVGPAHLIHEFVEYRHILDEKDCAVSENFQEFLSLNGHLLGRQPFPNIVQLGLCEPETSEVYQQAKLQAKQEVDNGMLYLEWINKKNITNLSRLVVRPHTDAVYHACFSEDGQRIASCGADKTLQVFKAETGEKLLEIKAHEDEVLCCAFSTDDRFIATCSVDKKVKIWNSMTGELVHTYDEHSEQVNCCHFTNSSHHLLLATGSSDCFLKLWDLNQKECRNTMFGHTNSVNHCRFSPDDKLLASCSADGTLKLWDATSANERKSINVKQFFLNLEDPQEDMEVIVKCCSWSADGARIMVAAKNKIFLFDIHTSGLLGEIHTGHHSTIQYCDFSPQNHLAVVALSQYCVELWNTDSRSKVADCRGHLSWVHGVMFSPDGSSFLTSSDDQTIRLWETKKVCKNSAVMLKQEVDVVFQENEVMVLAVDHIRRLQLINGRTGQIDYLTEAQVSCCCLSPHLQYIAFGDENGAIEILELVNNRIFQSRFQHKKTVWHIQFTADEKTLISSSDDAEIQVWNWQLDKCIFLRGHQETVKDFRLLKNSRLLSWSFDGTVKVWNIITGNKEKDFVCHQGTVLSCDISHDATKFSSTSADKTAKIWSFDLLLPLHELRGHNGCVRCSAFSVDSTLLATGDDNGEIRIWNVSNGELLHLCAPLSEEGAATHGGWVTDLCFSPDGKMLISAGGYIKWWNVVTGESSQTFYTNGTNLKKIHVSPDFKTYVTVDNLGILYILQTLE

Beta-arrestin-1 = Beta-arrestin-1 (Homo sapiens, UniProt P49407); experiment: beta-arrestin/AP2 interaction blockers, potency – biochemical, cherry pick 1, beta2-adaptin appendage, flow cytometry, dose response (AID 588783); format: functional
Beta-arrestin-1, sequence (P49407 whole entry): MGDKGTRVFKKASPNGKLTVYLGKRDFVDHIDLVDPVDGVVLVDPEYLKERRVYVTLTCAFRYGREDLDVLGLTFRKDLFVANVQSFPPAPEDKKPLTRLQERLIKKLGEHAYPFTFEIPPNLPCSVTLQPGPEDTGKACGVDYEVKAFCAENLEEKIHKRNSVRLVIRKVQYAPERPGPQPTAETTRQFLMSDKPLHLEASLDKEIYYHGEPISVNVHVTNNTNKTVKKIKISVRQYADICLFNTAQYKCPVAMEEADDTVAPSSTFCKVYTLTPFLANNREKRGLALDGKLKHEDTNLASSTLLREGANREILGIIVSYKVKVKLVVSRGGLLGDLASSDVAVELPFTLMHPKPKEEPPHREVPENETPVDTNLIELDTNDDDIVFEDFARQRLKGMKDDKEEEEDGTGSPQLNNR

[16] = biological target: Long-chain-fatty-acid--AMP ligase FadD28 (Mycobacterium tuberculosis, UniProt P9WQ59); experiment: Fluorescence polarization aasay to screen for inhibitors that compete for the binding of FadD28 to a bisubstrate Measured in Biochemical System Using Plate Reader - 2147-01_Inhibitor_Dose_CherryPick_Activity.; format: functional, Mycobacterium tuberculosis H37Rv
Long-chain-fatty-acid--AMP ligase FadD28, sequence (P9WQ59 whole entry): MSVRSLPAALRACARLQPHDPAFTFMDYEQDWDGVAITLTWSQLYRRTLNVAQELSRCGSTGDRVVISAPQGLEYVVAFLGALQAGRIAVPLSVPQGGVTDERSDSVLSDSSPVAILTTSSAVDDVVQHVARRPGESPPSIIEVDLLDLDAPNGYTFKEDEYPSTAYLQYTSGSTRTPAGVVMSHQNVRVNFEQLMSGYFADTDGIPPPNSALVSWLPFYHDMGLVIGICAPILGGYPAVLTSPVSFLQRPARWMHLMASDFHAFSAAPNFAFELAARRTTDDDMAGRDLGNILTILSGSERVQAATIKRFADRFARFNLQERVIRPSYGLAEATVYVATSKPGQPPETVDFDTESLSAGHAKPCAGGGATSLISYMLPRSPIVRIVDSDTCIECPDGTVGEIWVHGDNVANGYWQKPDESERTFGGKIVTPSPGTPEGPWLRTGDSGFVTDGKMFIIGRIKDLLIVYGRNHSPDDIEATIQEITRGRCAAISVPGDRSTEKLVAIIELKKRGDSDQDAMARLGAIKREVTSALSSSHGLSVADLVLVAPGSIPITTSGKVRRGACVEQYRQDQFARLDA

CCOC(=O)c1ccc(NC(=O)Cn2nnc(-c3ccc(C)cc3)n2)cc1
EC50 [1]: 158 nM (active) and 839 nM (active)

COc1cc(-c2nc3n(n2)C(c2ccc(F)cc2)C2=C(O)CCCC2=N3)cc(OC)c1OC (configuration not stated)
IC50 [2]: > 80 µM (inactive)
IC50 (HEK293 [3]): 39.1 µM (inactive)
IC50 (Jurkat): > 79 µM (inactive)
IC50 (HEK293 [4]): 31.4 µM (inactive)

CN(C)S(=O)(=O)c1ccc(NC(=O)c2cc3ccccc3o2)cc1
AC50 [5]: 21.1 µM (active)
AC50 [6]: 29.9 µM (active)
CC50 [7]: > 40 µM (active)

Br.CC1[C@H]2Cc3ccc(O)cc3[C@]1(C)CCN2CCc1ccccc1 (some centres not stated)
EC50 [8]: 0.551 µM (active)
EC50 (Mu-type opioid receptor): > 10.3 µM (inactive)
EC50 [9]: > 0.01406 µM
EC50 [10]: > 92.5 µM (inactive)

O=c1c2ccccc2nc(/C=C/c2cccnc2)n1Cc1ccccc1F
IC50 (Hexokinase-1): > 80 µM (inactive)
IC50 (Hexokinase HKDC1): > 80 µM (inactive)

Cc1cc(C)n2nc(SCC(=O)N3CCN(c4ccccc4)CC3)nc2n1
AC50 (Escherichia coli): 106 µM (active)

c1cncc(-c2nc(NCCCn3cccc3)c3ccccc3n2)c1
AC50 [11]: 7.63 µM (active)
AC50 [12]: 2.97 µM (active)

Cc1cc2nc3ccc(N(C)C)cc3nc2cc1N
EC50 [13]: 13 µM (active)
EC50 [14]: 14.3 µM (active)
IC50 [15]: 34 µM (active)
IC50 (Beta-arrestin-1): 8.88 µM (active)
AC50 [16]: 33.6 µM (active)
